Reference: patent publication US20090136579A1, “Nanoparticles Comprising a PDGF Receptor Tyrosine Kinase Inhibitor” (priority 2006, published 2009)
“Also recorded” adds a separate entry of the source. Like-named read-outs stand apart in the source and are kept apart here.

Legend:
Rat aortic SMCs = settings: for inhibition of PDGF-BB induced SMC migration, dose dependence: free Imatinib 0.1, 1, 10 μM, PDGF-BB 10 ng/ml
Method: Migration of rat aortic SMCs is assessed with a Boyden chamber type cell migration assay kit housing a collagen-precoated polycarbonate membrane with 8.0-μm pores (Chemicon), as we previously described (Ono H, Ichiki T, et al. Arterioscler Thromb Vasc Biol. 2004; 24:1634-9.). SMCs are grown to semiconfluent and then made quiescent in serum free medium for 24 hours before migration. The cells (1×10^5 cells/ml) are added to the upper chamber of the membrane (n=6 per group) and allowed to migrate through the pores. […] These cells are washed with PBS before PDGF stimulation. SMCs are then exposed. to PDGF-BB (10 ng/ml) in the lower chamber for 4 hours, after which non-migrated cells are removed from the upper chamber using a cotton swab. The SMCs that migrate to the lower side of the filter are fixed in methanol, stained with Diff-Quick staining solution (Baxter), and counted under a microscope for quantification of SMC migration.

rabbit vein graft = test: Rabbit vein graft failure model (vein autograft implanted into carotid artery); type: in vivo; settings: graft treated for 30 min, Imatinib 10% w/v; 4 weeks
Excerpt: A rabbit vein autograft is implanted into a carotid artery to prepare a rabbit vein graft failure model. In this model, a lumen stenosis due to neointimal formation develops after 4 weeks.

[1] = system: Human coronary artery arterial vascular SMCs; settings: for inhibition of PDGF-BB induced SMC proliferation, dose dependence: free Imatinib 0.1, 1, 10 μM, PDGF-BB 10 ng/ml
Method: Human coronary artery arterial vascular SMCs (Cambrex Bio Science Walkersville, Inc) are seeded on 48-well culture plates (FALCON 354506 BIOCOAT CELL WARE Human Fibronectin) at 5×10^3 cells per well (n=6 per group) in SM-BM with 10% FBS. After 24 hours, the cells are starved for 72 hours in serum free medium to obtain quiescent non-dividing cells. After starvation, recombinant PDGF-BB (Sigma) 10 ng/m^1 is added. […] These wells are washed with PBS before PDGF stimulation. Four days later, the cells are fixed with methanol and stained with Diff-Quick staining solution (Baxter). A single observer who is blinded the experimental protocol counted the number of cells/plate under a microscope for quantification of SMC proliferation.

[2] = listed as non-encapsulated Imatinib
[3] = free Imatinib at 0.1 μM, listed as free Imatinib

SMILES: Cc1ccc(NC(=O)c2ccc(CN3CCN(C)CC3)cc2)cc1Nc1nccc(-c2cccnc2)n1 [Imatinib, N-{5-[4-(4-methylpiperazino-methyl)-benzoylamido]-2-methylphenyl}-4-(3-pyridyl)-2-pydmidine-amine]
- inhibition of PDGF-BB induced SMC migration, dose dependence (Rat aortic SMCs): dose-dependent inhibitory effect
- inhibition of PDGF-BB induced SMC migration, dose dependence (Rat aortic SMCs; listed as free Imatinib): dose-dependent manner
- inhibition of PDGF-BB induced SMC migration, dose dependence (Rat aortic SMCs; [2]): dose-dependent manner
- effect on PDGF-induced SMC migration (Rat aortic SMCs; free Imatinib at 0.1 μM): no effect
- effect on PDGF-induced SMC migration (Rat aortic SMCs; [3]): no effects
- effect on PDGF-induced SMC migration (Rat aortic SMCs; free Imatinib at 10 μM): normalizes
- neointimal formation of vein graft (rabbit vein graft): No suppression
- inhibition of PDGF-BB induced SMC proliferation, dose dependence [1]: dose-dependently reduces
- inhibition of PDGF-BB induced SMC proliferation, dose dependence ([1]; listed as free Imatinib): dose-dependent manner
- inhibition of PDGF-BB induced SMC proliferation, dose dependence [1, 2]: dose-dependent manner
- effect on PDGF-induced SMC proliferation ([1]; free Imatinib at 0.1 μM): no effect
- effect on PDGF-induced SMC proliferation [1, 3]: no effects
- effect on PDGF-induced SMC proliferation ([1]; free Imatinib at 10 μM): normalizes; also recorded: completely abolishes
